Values quoted from earlier work in patent US7829544B2, “Aqueous solution preparation containing aminoglycoside antibiotic and bromfenac” (Senju Pharmaceutical Co., Ltd., priority 2003, dated 2010).

Conditions: tobramycin combined with diclofenac sodium

Compound: NC[C@H]1O[C@H](O[C@H]2[C@H](O)[C@@H](O[C@H]3O[C@H](CO)[C@@H](O)[C@H](N)[C@H]3O)[C@H](N)C[C@@H]2N)[C@H](N)C[C@@H]1O [tobramycin]
- behaviour of the combination solution: precipitation or suspension formation occurs
